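96-well plates; 48 h exposure; 5 concentrations. Endpoints by linear interpolation between flanking doses. Not reached: highest tested concentration assigned. Definition used: TGI = concentration required for complete inhibition of growth.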
Assays:
Assay in all cases: NCI tumour cell line growth inhibition, 48 h
OVCAR-5 ovarian = system: OVCAR-5 ovarian
M14 melanoma = system: M14 melanoma
SF-268 CNS = system: SF-268 CNS
MDA-MB-231 breast = system: MDA-MB-231 breast
SW-620 colon = system: SW-620 colon
KM12 colon = system: KM12 colon
MOLT-4 leukemia = system: MOLT-4 leukemia
786-0 renal = system: 786-0 renal
SR leukemia = system: SR leukemia
SF-295 CNS = system: SF-295 CNS
SNB-75 CNS = system: SNB-75 CNS
HCC-2998 colon = system: HCC-2998 colon
SNB-19 CNS = system: SNB-19 CNS
SK-MEL-28 melanoma = system: SK-MEL-28 melanoma
NCI-H460 lung = system: NCI-H460 lung
HOP-62 NSCLC = system: HOP-62 NSCLC
NCI-H522 lung = system: NCI-H522 lung
A498 renal = system: A498 renal
HOP-92 NSCLC = system: HOP-92 NSCLC
BT-549 breast = system: BT-549 breast

Compound	TGI (OVCAR-5 ovarian)	TGI (M14 melanoma)	TGI (SF-268 CNS)	TGI (MDA-MB-231 breast)	TGI (SW-620 colon)	TGI (KM12 colon)	TGI (MOLT-4 leukemia)	TGI (786-0 renal)	TGI (SR leukemia)	TGI (SF-295 CNS)	TGI (SNB-75 CNS)	TGI (HCC-2998 colon)	TGI (SNB-19 CNS)	TGI (SK-MEL-28 melanoma)	TGI (NCI-H460 lung)	TGI (HOP-62 NSCLC)	TGI (NCI-H522 lung)	TGI (A498 renal)	TGI (HOP-92 NSCLC)	TGI (BT-549 breast)
CN(C)c1ccc(/C=C/C(=O)CC(=O)/C=C/c2ccc(N(C)C)cc2)cc1	> 100 µM	> 100 µM	> 100 µM	> 100 µM	> 100 µM	> 100 µM	> 100 µM	> 100 µM	76.7 µM	> 100 µM	> 100 µM	> 100 µM	> 100 µM	> 100 µM	> 100 µM	> 100 µM	> 100 µM			
O=c1[nH]nc(-c2ccccc2)n1Nc1ccccc1	> 100 µM	> 100 µM	> 100 µM	> 100 µM	> 100 µM	> 100 µM	> 100 µM	> 100 µM	> 100 µM	> 100 µM	> 100 µM	> 100 µM	> 100 µM	> 100 µM	> 100 µM		> 100 µM	> 100 µM	> 100 µM	
CC(C)Oc1c(O)c2c3c(oc(=O)n3C=CC2c2ccccc2)c1OC(C)C (stereo not drawn)	> 100 µM	41.4 µM		> 100 µM	82.8 µM	89.6 µM	> 100 µM	> 100 µM		49.1 µM	53.2 µM	35.3 µM	> 100 µM	54.5 µM	35.1 µM	> 100 µM			> 100 µM	
Cc1ccc2nc3c(=O)[nH]c(=O)nc-3n(C)c2c1C	> 100 µM	> 100 µM	> 100 µM	> 100 µM	> 100 µM	> 100 µM	> 100 µM	> 100 µM		> 100 µM	> 100 µM	> 100 µM	> 100 µM	> 100 µM	> 100 µM	> 100 µM	> 100 µM			> 100 µM
N#C[C@@H](c1nc2ccccc2s1)c1ncccc1[N+](=O)[O-]	> 31.6 µM	> 31.6 µM	> 31.6 µM	17.4 µM		> 62.9 µM	> 31.6 µM	17.2 µM		40.7 µM	> 31.6 µM	28.5 µM	17.4 µM		14.2 µM	> 57.6 µM	12 µM	> 31.6 µM	6.85 µM	26.9 µM
COC(=O)[C@H](Cc1ccccc1)NP(=O)(OCCC#N)OCC1OC(n2cc(C)c(=O)[nH]c2=O)CC1N=[N+]=[N-] (stereo partly drawn)	> 100 µM	> 100 µM	> 100 µM	> 100 µM	> 100 µM	> 100 µM	> 100 µM	> 100 µM		> 100 µM	> 100 µM	> 100 µM	> 100 µM		> 100 µM	> 100 µM	> 100 µM		> 100 µM	> 100 µM
O=C1/C(=c2\s/c(=C\c3ccccc3)c(=O)n2-c2ccccc2)SC(=S)N1c1ccccc1	> 100 µM	> 100 µM	> 100 µM	57.1 µM	> 100 µM	> 100 µM	> 100 µM	> 100 µM	> 100 µM	> 100 µM	> 100 µM	> 100 µM	> 100 µM	> 100 µM	> 100 µM			> 100 µM	> 100 µM	

— PubChem BioAssay (NCI)
